Laboratory results: patent US20070219193A1, “ALKYLAMINE-SUBSTITUTED BICYCLIC ARYL COMPOUNDS USEFUL AS MODULATORS OF PPAR” (KALYPSYS, INC, priority 2006, published 2007)

Assays:
Assay type in all cases: cell-based
PPAR alpha = biological target: T1, PPAR alpha (Homo sapiens, UniProt Q07869); experiment: Full-length PPAR transcriptional activation assay (PPRE::Luciferase reporter, HEK293 cells), PPAR alpha; conditions: transfected HEK293 cells, species of receptor not given
T1 construct: expressed in transfected cells; host or cells: HEK293
T1 sequence (Q07869 1-468): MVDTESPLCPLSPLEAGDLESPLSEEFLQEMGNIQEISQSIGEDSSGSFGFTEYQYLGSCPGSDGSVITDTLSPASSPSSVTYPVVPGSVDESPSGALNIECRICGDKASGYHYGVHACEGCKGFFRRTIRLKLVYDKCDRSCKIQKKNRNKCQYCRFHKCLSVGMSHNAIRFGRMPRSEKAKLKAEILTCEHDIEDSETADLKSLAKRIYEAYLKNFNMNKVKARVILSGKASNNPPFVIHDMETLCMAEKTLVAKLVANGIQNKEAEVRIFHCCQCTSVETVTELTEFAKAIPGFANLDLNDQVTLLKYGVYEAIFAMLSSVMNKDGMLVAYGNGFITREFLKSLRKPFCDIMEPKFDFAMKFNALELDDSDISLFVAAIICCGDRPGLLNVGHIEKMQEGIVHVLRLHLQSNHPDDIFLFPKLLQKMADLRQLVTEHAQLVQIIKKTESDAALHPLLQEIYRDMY
Protocol: (§1) HEK293 cells were seeded the day before transfection into 384-well plates at a cell density of 6,000 cells per well in 40 μl assay medium I (phenol red-free DMEM containing 4% charcoal-dextran stripped FBS, 1% Penicillin-Streptomycin and 1% GlutaMax-1). Then 25 ng of PPRE::Luciferase reporter plasmid, an expression plasmid (25 pg of PPARα, or 40 pg of PPARδ, or 75 pg of PPARγ2), and an appropriate amount of the plasmid pUC19 to bring the total DNA amount to 50 ng was added to 20 μl of phenol-red free DMEM and 150 nL of Fugene 6 and incubated for 30 minutes. The transfection mixtures were then added to the cells and incubated for three hours. 10 μl of test agents in 5% DMSO were then added to the cells and incubated at 37° C. for an additional 18 hours. Luciferase activity was then assayed by adding 25 μl/well of Britelite (Perkin Elmer) according to the manufacturer's protocol and relative light output was measured with an Analyst GT plate reader (Molecular Devices). All experimental points were done in triplicate and the assays were repeated at least 3 times.
(§2) HEK293 cells were seeded the day before transfection in […] dishes at a density of 9×10^6 cells/dish and incubated at 37° C., 10% CO2 for 16-24 hours. Then, […] of PPRE::Luciferase reporter plasmid, an expression plasmid (7.5 ng of PPARα, or 7.5 ng of PPARδ, or 75 ng of PPARγ2), and an appropriate amount of the plasmid pUC19 to bring the total DNA amount to […] were mixed with 54 μl of Fugene 6 in 2 mls of phenol red-free DMEM and incubated for 30 minutes. Transfection mixtures were then incubated with the cells for 18 hours. Cells were then replated into sterile, white TC treated 384-well assay plates at a cell density of 24×10^3 cells/well in 40 μl of assay medium II (phenol-red free DMEM containing 3% charcoal/dextran-stripped FBS, 1% Penicillin-Streptomycin and 1% GlutaMax-1) and incubated at 37° C. for 6 hours. 10 μl of test agents in 5% DMSO were then added to the cells and incubated at 37° C. for an additional 18 hours. Luciferase activity was then assayed by adding 30 μl/well of Britelite (Perkin Elmer) according to the manufacturer's protocol and relative light output was measured with an Analyst GT plate reader (Molecular Devices). All experimental points were done in triplicate and the assays were repeated 3 times.

PPAR delta = biological target: T2, PPAR delta (Homo sapiens, UniProt Q03181); experiment: Full-length PPAR transcriptional activation assay (PPRE::Luciferase reporter, HEK293 cells), PPAR delta; conditions: transfected HEK293 cells, species of receptor not given
T2 construct: expressed in transfected cells; host or cells: HEK293
T2 sequence (Q03181 1-441): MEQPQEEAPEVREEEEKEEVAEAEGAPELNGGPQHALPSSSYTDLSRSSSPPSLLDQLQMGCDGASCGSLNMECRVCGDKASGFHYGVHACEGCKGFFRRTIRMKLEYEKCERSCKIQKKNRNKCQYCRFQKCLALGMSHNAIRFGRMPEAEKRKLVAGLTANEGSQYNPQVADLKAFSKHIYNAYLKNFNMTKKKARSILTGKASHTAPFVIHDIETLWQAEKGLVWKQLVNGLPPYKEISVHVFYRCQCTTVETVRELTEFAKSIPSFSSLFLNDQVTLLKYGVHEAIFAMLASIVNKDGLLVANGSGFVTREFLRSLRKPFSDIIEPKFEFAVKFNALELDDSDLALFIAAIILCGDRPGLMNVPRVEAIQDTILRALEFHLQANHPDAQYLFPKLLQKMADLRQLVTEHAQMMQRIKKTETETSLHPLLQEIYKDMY
Protocol: as §1, §2

PPAR gamma = biological target: T3, PPAR gamma (Homo sapiens, UniProt P37231); experiment: Full-length PPAR transcriptional activation assay (PPRE::Luciferase reporter, HEK293 cells), PPAR gamma; conditions: transfected HEK293 cells (PPARγ2 plasmid), species of receptor not given
T3 construct: expressed in transfected cells; host or cells: HEK293
T3 sequence (P37231 1-505): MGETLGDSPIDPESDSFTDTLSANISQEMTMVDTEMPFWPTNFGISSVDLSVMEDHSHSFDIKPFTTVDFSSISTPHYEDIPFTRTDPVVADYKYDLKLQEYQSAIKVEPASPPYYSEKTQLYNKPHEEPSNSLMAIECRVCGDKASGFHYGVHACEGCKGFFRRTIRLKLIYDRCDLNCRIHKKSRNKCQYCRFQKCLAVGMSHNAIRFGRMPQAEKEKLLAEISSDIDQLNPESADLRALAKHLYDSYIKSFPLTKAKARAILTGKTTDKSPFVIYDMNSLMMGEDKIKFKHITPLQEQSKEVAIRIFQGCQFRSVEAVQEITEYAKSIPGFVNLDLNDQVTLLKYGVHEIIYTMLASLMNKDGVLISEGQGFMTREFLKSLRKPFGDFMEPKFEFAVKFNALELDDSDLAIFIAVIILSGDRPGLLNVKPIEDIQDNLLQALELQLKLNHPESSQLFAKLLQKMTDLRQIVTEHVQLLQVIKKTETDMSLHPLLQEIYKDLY
Protocol: as §1, §2

In the case of `CCc1cnc(N(CCCC2Oc3cc(CC(=O)O)ccc3CC2C)Cc2ccc(OC(F)(F)F)cc2)nc1` (single isomer, unassigned) [Example 18A, 2-(2-(3-((5-ethylpyrimidin-2-yl)(4-(trifluoromethoxy)benzyl)amino)propyl)-3-methylchroman-7-yl)acetic acid], the EC50 (PPAR alpha) is reported as > 1000 nM, the EC50 (PPAR delta) is reported as ≤ 1000 nM and the EC50 (PPAR gamma) is reported as ≤ 1000 nM.

In the case of `CCc1cnc(N(CCCC2Oc3cc(CC(=O)O)ccc3CC2C)Cc2ccc(OC(F)(F)F)cc2)nc1` (single isomer, unassigned) [Example 18B], the EC50 (PPAR alpha) is reported as ≤ 1000 nM, the EC50 (PPAR delta) is reported as ≤ 1000 nM and the EC50 (PPAR gamma) is reported as ≤ 1000 nM.

`CCc1cnc(N(CCCC2Oc3cc(CC(=O)O)ccc3CC2C)Cc2ccc(OC(F)(F)F)cc2)nc1` (single isomer, unassigned) [Example 18C] was tested, and the EC50 (PPAR alpha) was ≤ 1000 nM, the EC50 (PPAR delta) was ≤ 1000 nM and the EC50 (PPAR gamma) was > 1000 nM.

In the case of `CCc1cnc(N(CCCC2Oc3cc(CC(=O)O)ccc3CC2C)Cc2ccc(OC(F)(F)F)cc2)nc1` (single isomer, unassigned) [Example 18D], the EC50 (PPAR alpha) is reported as > 1000 nM, the EC50 (PPAR delta) is reported as ≤ 1000 nM and the EC50 (PPAR gamma) is reported as ≤ 1000 nM.

`CCc1cnc(N(CCCC2Oc3cccc(CC(=O)O)c3CC2C)Cc2ccc(OC(F)(F)F)cc2)nc1` (single isomer, unassigned) [Example 19A, 2-(2-(3-((5-ethylpyrimidin-2-yl)(4-(trifluoromethoxy)benzyl)amino)propyl)-3-methylchroman-5-yl)acetic acid] was tested, and the EC50 (PPAR alpha) was > 1000 nM, the EC50 (PPAR delta) was ≤ 1000 nM and the EC50 (PPAR gamma) was ≤ 1000 nM.

For `CCc1cnc(N(CCCC2Oc3cccc(CC(=O)O)c3CC2C)Cc2ccc(OC(F)(F)F)cc2)nc1` (single isomer, unassigned) [Example 19B, 2-(2-(3-((5-ethylpyrimidin-2-yl)(4-(trifluoromethoxy)benzyl)amino)propyl)-3-methylchroman-5-yl)acetic acid], the EC50 (PPAR alpha) was > 1000 nM, the EC50 (PPAR delta) was ≤ 1000 nM and the EC50 (PPAR gamma) was ≤ 1000 nM.

For `CCc1cnc(N(CCCC2Oc3cccc(CC(=O)O)c3CC2C)Cc2ccc(OC(F)(F)F)cc2)nc1` (single isomer, unassigned) [Example 19C, 2-(2-(3-((5-ethylpyrimidin-2-yl)(4-(trifluoromethoxy)benzyl)amino)propyl)-3-methylchroman-5-yl)acetic acid], the EC50 (PPAR alpha) was > 1000 nM, the EC50 (PPAR delta) was ≤ 1000 nM and the EC50 (PPAR gamma) was ≤ 1000 nM.

For `CCc1cnc(N(CCCC2Oc3cccc(CC(=O)O)c3CC2C)Cc2ccc(OC(F)(F)F)cc2)nc1` (single isomer, unassigned) [Example 19D, 2-(2-(3-((5-ethylpyrimidin-2-yl)(4-(trifluoromethoxy)benzyl)amino)propyl)-3-methylchroman-5-yl)acetic acid], the EC50 (PPAR alpha) was > 1000 nM, the EC50 (PPAR delta) was ≤ 1000 nM and the EC50 (PPAR gamma) was ≤ 1000 nM.

In the case of `CCc1cnc(N(CCCN2CCc3ccc(CC(=O)O)cc3C2)Cc2ccc(OC(F)(F)F)cc2)nc1` [Example 1, (2-{3-[(5-Ethyl-pyrimidin-2-yl)-(4-trifluoromethoxy-benzyl)-amino]-propyl}-1,2,3,4-tetrahydro-isoquinolin-7-yl)-acetic acid], the EC50 (PPAR alpha) is reported as > 1000 nM, the EC50 (PPAR delta) is reported as ≤ 1000 nM and the EC50 (PPAR gamma) is reported as ≤ 1000 nM.

`CCc1cnc(N(CCCN2CCc3ccc(CC(=O)O)cc3C2)Cc2ccc(C(F)(F)F)cc2C(F)(F)F)nc1` [Example 2, (2-{3-[(2,4-Bis-trifluoromethyl-benzyl)-(5-ethyl-pyrimidin-2-yl)-amino]-propyl}-1,2,3,4-tetrahydro-isoquinolin-7-yl)-acetic acid] was tested, and the EC50 (PPAR alpha) was > 1000 nM, the EC50 (PPAR delta) was ≤ 1000 nM and the EC50 (PPAR gamma) was ≤ 1000 nM.

For `CCc1cnc(N(CCN2CCc3ccc(CC(=O)O)cc3C2)Cc2ccc(OC(F)(F)F)cc2)nc1` [Example 3, (2-{2-[(5-Ethyl-pyrimidin-2-yl)-(4-trifluoromethoxy-benzyl)-amino]-ethyl}-1,2,3,4-tetrahydro-isoquinolin-7-yl)-acetic acid], the EC50 (PPAR alpha) was > 1000 nM, the EC50 (PPAR delta) was ≤ 1000 nM and the EC50 (PPAR gamma) was ≤ 1000 nM.

`CCc1cnc(N(CCN2CCc3ccc(CC(=O)O)cc3C2)Cc2ccc(C(F)(F)F)cc2C(F)(F)F)nc1` [Example 4, (2-{2-[(2,4-Bis-trifluoromethyl-benzyl)-(5-ethyl-pyrimidin-2-yl)-amino]-ethyl}-1,2,3,4-tetrahydro-isoquinolin-7-yl)-acetic acid] was tested, and the EC50 (PPAR alpha) was > 1000 nM, the EC50 (PPAR delta) was ≤ 1000 nM and the EC50 (PPAR gamma) was ≤ 1000 nM.

For `CCc1cnc(N(CCCCN2CCc3ccc(CC(=O)O)cc3C2)c2ccc(OC(F)(F)F)cc2)nc1` [Example 5, (2-{4-[(5-Ethyl-pyrimidin-2-yl)-(4-trifluoromethoxy-phenyl)-amino]-butyl}-1,2,3,4-tetrahydro-isoquinolin-7-yl)-acetic acid], the EC50 (PPAR alpha) was > 1000 nM, the EC50 (PPAR delta) was > 1000 nM and the EC50 (PPAR gamma) was > 1000 nM.

`CCc1cnc(N(CCCN2CCc3ccc(CC(=O)O)cc3C2)c2ccc(OC(F)(F)F)cc2)nc1` [Example 6, (2-{3-[(5-Ethyl-pyrimidin-2-yl)-(4-trifluoromethoxy-phenyl)-amino]-propyl}-1,2,3,4-tetrahydroisoquinolin-7-yl)-acetic acid] was tested, and the EC50 (PPAR alpha) was > 1000 nM, the EC50 (PPAR delta) was > 1000 nM and the EC50 (PPAR gamma) was > 1000 nM.

In the case of `CCc1cnc(N(CCCN2CCc3ccc(CC(=O)O)cc3C2)c2ccc(C(F)(F)F)cc2)nc1` [Example 7, (2-[3-[(5-Ethyl-pyrimidin-2-yl)-(4-trifluoromethyl-phenyl)-amino]-propyl]-1,2,3,4-tetrahydroisoquinolin-7-yl)-acetic acid], the EC50 (PPAR alpha) is reported as > 1000 nM, the EC50 (PPAR delta) is reported as > 1000 nM and the EC50 (PPAR gamma) is reported as > 1000 nM.

With `CCc1cnc(N(CCc2ccc(C(F)(F)F)cc2)CCN2CCc3ccc(CC(=O)O)cc3C2)nc1` [Example 8, [2-(2-{(5-Ethyl-pyrimidin-2-yl)-[2-(4-trifluoromethyl-phenyl)-ethyl]-amino}-ethyl)-1,2,3,4-tetrahydro-isoquinolin-7-yl]-acetic acid] the EC50 (PPAR alpha) was > 1000 nM, the EC50 (PPAR delta) was ≤ 1000 nM and the EC50 (PPAR gamma) was > 1000 nM.

`CCc1cnc(N(CCCN2CCc3ccc(CC(=O)O)cc3C2)CCc2ccc(C(F)(F)F)cc2)nc1` [Example 9, [2-(3-{(5-Ethyl-pyrimidin-2-yl)-[2-(4-trifluoromethyl-phenyl)-ethyl]-amino}-propyl)-1,2,3,4-tetrahydro-isoquinolin-7-yl]-acetic acid] was tested, and the EC50 (PPAR alpha) was > 1000 nM, the EC50 (PPAR delta) was ≤ 1000 nM and the EC50 (PPAR gamma) was > 1000 nM.
